Measured values: US20120282346A1, “BRIMONIDINE COMPOSITIONS FOR TREATING ERYTHEMA” (priority 2007, published 2012)

Tested on: erythema
Conditions: high dosage gel (0.20% by weight brimonidine tartrate), applied topically each day for 28 days; across all visits (days 1, 14, 28), evaluated up to eight hours; patients with moderate to severe erythema; p<0.001
Experimental: A double-blind, placebo-controlled study was conducted at six centers of 110 patients with moderate to severe erythema. […] On days 1, 14, and 28, patients applied the gel under the supervision of clinical staff in the study centers, and were evaluated at set intervals for up to eight hours.
Evaluation led to a Clinician's Erythema Assessment Score (CEA). Each patients' erythema was rated on a scale from 0 to 4, with 0 being the rating for no erythema and 4 being the rating for extreme erythema.
Also, a side effect profile was established.

SMILES: Brc1c(N=C2NCCN2)ccc2nccnc12.O=C(O)C(O)C(O)C(=O)O [brimonidine tartrate, 5-bromo-6-(2-imidazolidinylideneamino) quinoxaline L-tartrate]
- reduction in the average CEA (Clinician's Erythema Assessment Score, scale 0 to 4): statistically significant reduction
